Data: patent publication US11591604B2, “Gene expression in Bacteroides” (Massachusetts Institute of Technology, priority 2015, dated 2023)

System: NanoLuc
Assay: NanoLuc luciferase reporter expression from constitutive promoters and RBSs integrated with pNBU2
Format: cell-based, B. thetaiotaomicron
Conditions: for Average Luminescence (RLU/CFU): RBS combined with promoter PBT1311, NanoLuc reporter, three biological replicates; for Expression Level (RLU/CFU): set of 8 RBSs, under control of PBT1311, NanoLuc reporter

“C40: RBS, SEQ ID NO: 115 (DNA TCCCGCATTTTAAAATAAAATAAATTATTCCTTTACTTAAACGAAT; chemistry not fully specified)” was tested, and the “Average Luminescence (RLU/CFU)” value was 0.003759 RLU/CFU.
In the case of “B14: RBS, SEQ ID NO: 26 (DNA TCCCGCATTTTAAAATAAAATAAATTATCTATTTAATTAAACGAAT; chemistry not fully specified)”, the “Average Luminescence (RLU/CFU)” value is reported as 0.02715 RLU/CFU.
In the case of “A20: RBS, SEQ ID NO: 71 (DNA TCCCGCATTTTAAAATAAAATAAATTATTTATTTATTTAAACGAAT; chemistry not fully specified)”, the “Average Luminescence (RLU/CFU)” value is reported as 0.01179 RLU/CFU.
“C39: RBS, SEQ ID NO: 109 (DNA TCCCGCATTTTAAAATAAAATAAATTATTCCTTTATTTAAACGAAT; chemistry not fully specified)” was tested, and the “Average Luminescence (RLU/CFU)” value was 0.004534 RLU/CFU.
With “B21: RBS, SEQ ID NO: 53 (DNA TCCCGCATTTTAAAATAAAATAAATGATATATTTAATTAAACGAAT; chemistry not fully specified)” the “Average Luminescence (RLU/CFU)” value was 0.01613 RLU/CFU.
In the case of “A13: RBS, SEQ ID NO: 58 (DNA TCCCGCATTTTAAAATAAAATAAATTATTGATTTACTTAAACGAAT; chemistry not fully specified)”, the “Average Luminescence (RLU/CFU)” value is reported as 0.01484 RLU/CFU.
With “C36: RBS, SEQ ID NO: 100 (DNA TCCCGCATTTTAAAATAAAATAAATTATTACTTTATTTAAACGAAT; chemistry not fully specified)” the “Average Luminescence (RLU/CFU)” value was 0.005692 RLU/CFU.
For “B30: RBS, SEQ ID NO: 82 (DNA TCCCGCATTTTAAAATAAAATAAATGATGTATTTAATTAAACGAAT; chemistry not fully specified)”, the “Average Luminescence (RLU/CFU)” value was 0.009276 RLU/CFU.
“B23: RBS, SEQ ID NO: 61 (DNA TCCCGCATTTTAAAATAAAATAAATAATCTATTTAATTAAACGAAT; chemistry not fully specified)” was tested, and the “Average Luminescence (RLU/CFU)” value was 0.01464 RLU/CFU.
For “A42: RBS, SEQ ID NO: 130 (DNA TCCCGCATTTTAAAATAAAATAAATTATTGGTTTACTTAAACGAAT; chemistry not fully specified)”, the “Average Luminescence (RLU/CFU)” value was 0.001478 RLU/CFU.
In the case of “C15: RBS, SEQ ID NO: 41 (DNA TCCCGCATTTTAAAATAAAATAAATTATTTCTTTAATTAAACGAAT; chemistry not fully specified)”, the “Average Luminescence (RLU/CFU)” value is reported as 0.02056 RLU/CFU.
In the case of “A27: RBS, SEQ ID NO: 89 (DNA TCCCGCATTTTAAAATAAAATAAATTATTGGTTTAGTTAAACGAAT; chemistry not fully specified)”, the “Average Luminescence (RLU/CFU)” value is reported as 0.007908 RLU/CFU.
In the case of “B41: RBS, SEQ ID NO: 139 (DNA TCCCGCATTTTAAAATAAAATAAATCATATAGTTAATTAAACGAAT; chemistry not fully specified)”, the “Average Luminescence (RLU/CFU)” value is reported as 0.0001307 RLU/CFU.
In the case of “A10: RBS, SEQ ID NO: 49 (DNA TCCCGCATTTTAAAATAAAATAAATTATTGCTTTAGTTAAACGAAT; chemistry not fully specified)”, the “Average Luminescence (RLU/CFU)” value is reported as 0.01835 RLU/CFU.
For “B22: RBS, SEQ ID NO: 55 (DNA TCCCGCATTTTAAAATAAAATAAATCATGTAATTAATTAAACGAAT; chemistry not fully specified)”, the “Average Luminescence (RLU/CFU)” value was 0.01599 RLU/CFU.
With “B25: RBS, SEQ ID NO: 63 (DNA TCCCGCATTTTAAAATAAAATAAATGATTTAGTTAATTAAACGAAT; chemistry not fully specified)” the “Average Luminescence (RLU/CFU)” value was 0.01415 RLU/CFU.
For “A5: RBS, SEQ ID NO: 32 (DNA TCCCGCATTTTAAAATAAAATAAATTATTTCTTTACTTAAACGAAT; chemistry not fully specified)”, the “Average Luminescence (RLU/CFU)” value was 0.02579 RLU/CFU.
For “A7: RBS, SEQ ID NO: 34 (DNA TCCCGCATTTTAAAATAAAATAAATTATTAGTTTAATTAAACGAAT; chemistry not fully specified)”, the “Average Luminescence (RLU/CFU)” value was 0.02467 RLU/CFU.
In the case of “C16: RBS, SEQ ID NO: 43 (DNA TCCCGCATTTTAAAATAAAATAAATTATTAGTTTAATTAAACGAAT; chemistry not fully specified)”, the “Average Luminescence (RLU/CFU)” value is reported as 0.0203 RLU/CFU.
With “B27: RBS, SEQ ID NO: 74 (DNA TCCCGCATTTTAAAATAAAATAAATGATATAGTTAATTAAACGAAT; chemistry not fully specified)” the “Average Luminescence (RLU/CFU)” value was 0.009815 RLU/CFU.
For “C2: RBS, SEQ ID NO: 13 (DNA TCCCGCATTTTAAAATAAAATAAATTATTACTTTAGTTAAACGAAT; chemistry not fully specified)”, the “Average Luminescence (RLU/CFU)” value was 0.04331 RLU/CFU.
For “A41: RBS, SEQ ID NO: 123 (DNA TCCCGCATTTTAAAATAAAATAAATTATTATTTTATTTAAACGAAT; chemistry not fully specified)”, the “Average Luminescence (RLU/CFU)” value was 0.002417 RLU/CFU.
“A30: RBS, SEQ ID NO: 101 (DNA TCCCGCATTTTAAAATAAAATAAATTATTCCTTTACTTAAACGAAT; chemistry not fully specified)” was tested, and the “Average Luminescence (RLU/CFU)” value was 0.005604 RLU/CFU.
In the case of “A17: RBS, SEQ ID NO: 66 (DNA TCCCGCATTTTAAAATAAAATAAATTATTTTTTTAGTTAAACGAAT; chemistry not fully specified)”, the “Average Luminescence (RLU/CFU)” value is reported as 0.013 RLU/CFU.
With “C38: RBS, SEQ ID NO: 108 (DNA TCCCGCATTTTAAAATAAAATAAATTATTCTTTTATTTAAACGAAT; chemistry not fully specified)” the “Average Luminescence (RLU/CFU)” value was 0.004774 RLU/CFU.
For “B8: RBS, SEQ ID NO: 9 (DNA TCCCGCATTTTAAAATAAAATAAATTATTTAATTAATTAAACGAAT; chemistry not fully specified)”, the “Average Luminescence (RLU/CFU)” value was 0.04684 RLU/CFU.
“C44: RBS, SEQ ID NO: 122 (DNA TCCCGCATTTTAAAATAAAATAAATTATTTGTTTACTTAAACGAAT; chemistry not fully specified)” was tested, and the “Average Luminescence (RLU/CFU)” value was 0.00249 RLU/CFU.
With “B13: RBS, SEQ ID NO: 25 (DNA TCCCGCATTTTAAAATAAAATAAATGATTTAATTAATTAAACGAAT; chemistry not fully specified)” the “Average Luminescence (RLU/CFU)” value was 0.02746 RLU/CFU.
With “C33: RBS, SEQ ID NO: 93 (DNA TCCCGCATTTTAAAATAAAATAAATTATTAGTTTACTTAAACGAAT; chemistry not fully specified)” the “Average Luminescence (RLU/CFU)” value was 0.006912 RLU/CFU and the “Expression Level (RLU/CFU)” value was 6.91E-03 RLU/CFU.
For “C1: RBS, SEQ ID NO: 11 (DNA TCCCGCATTTTAAAATAAAATAAATTATTGATTTAGTTAAACGAAT; chemistry not fully specified)”, the “Average Luminescence (RLU/CFU)” value was 0.04468 RLU/CFU.
With “A32: RBS, SEQ ID NO: 104 (DNA TCCCGCATTTTAAAATAAAATAAATTATTCTTTTAGTTAAACGAAT; chemistry not fully specified)” the “Average Luminescence (RLU/CFU)” value was 0.005311 RLU/CFU.
With “C52: RBS, SEQ ID NO: 138 (DNA TCCCGCATTTTAAAATAAAATAAATTATTGGTTTACTTAAACGAAT; chemistry not fully specified)” the “Average Luminescence (RLU/CFU)” value was 0.000163 RLU/CFU and the “Expression Level (RLU/CFU)” value was 1.63E-04 RLU/CFU.
For “B12: RBS, SEQ ID NO: 22 (DNA TCCCGCATTTTAAAATAAAATAAATAATATATTTAATTAAACGAAT; chemistry not fully specified)”, the “Average Luminescence (RLU/CFU)” value was 0.03108 RLU/CFU.
“A38: RBS, SEQ ID NO: 114 (DNA TCCCGCATTTTAAAATAAAATAAATTATTCCTTTAGTTAAACGAAT; chemistry not fully specified)” was tested, and the “Average Luminescence (RLU/CFU)” value was 0.003824 RLU/CFU.
With “B4: RBS, SEQ ID NO: 4 (DNA TCCCGCATTTTAAAATAAAATAAATAATTTAATTAATTAAACGAAT; chemistry not fully specified)” the “Average Luminescence (RLU/CFU)” value was 0.05153 RLU/CFU.
In the case of “A39: RBS, SEQ ID NO: 116 (DNA TCCCGCATTTTAAAATAAAATAAATTATTGTTTTATTTAAACGAAT; chemistry not fully specified)”, the “Average Luminescence (RLU/CFU)” value is reported as 0.003302 RLU/CFU.
In the case of “C51: RBS, SEQ ID NO: 136 (DNA TCCCGCATTTTAAAATAAAATAAATTATTATTTTATTTAAACGAAT; chemistry not fully specified)”, the “Average Luminescence (RLU/CFU)” value is reported as 0.0006273 RLU/CFU and the “Expression Level (RLU/CFU)” value is reported as 6.27E-04 RLU/CFU.
“C3: RBS, SEQ ID NO: 14 (DNA TCCCGCATTTTAAAATAAAATAAATTATTACTTTAATTAAACGAAT; chemistry not fully specified)” was tested, and the “Average Luminescence (RLU/CFU)” value was 0.03677 RLU/CFU.
“A2: RBS, SEQ ID NO: 15 (DNA TCCCGCATTTTAAAATAAAATAAATTATTTTTTTACTTAAACGAAT; chemistry not fully specified)” was tested, and the “Average Luminescence (RLU/CFU)” value was 0.03616 RLU/CFU.
With “C22: RBS, SEQ ID NO: 57 (DNA TCCCGCATTTTAAAATAAAATAAATTATTGTTTTAATTAAACGAAT; chemistry not fully specified)” the “Average Luminescence (RLU/CFU)” value was 0.01508 RLU/CFU.
In the case of “B20: RBS, SEQ ID NO: 52 (DNA TCCCGCATTTTAAAATAAAATAAATGATCTAATTAATTAAACGAAT; chemistry not fully specified)”, the “Average Luminescence (RLU/CFU)” value is reported as 0.01676 RLU/CFU.
In the case of “C56: RBS, SEQ ID NO: 143 (DNA TCCCGCATTTTAAAATAAAATAAATTATTCGTTTAGTTAAACGAAT; chemistry not fully specified)”, the “Average Luminescence (RLU/CFU)” value is reported as 2.2125E-05 RLU/CFU and the “Expression Level (RLU/CFU)” value is reported as 2.21E-05 RLU/CFU.
In the case of “C45: RBS, SEQ ID NO: 124 (DNA TCCCGCATTTTAAAATAAAATAAATTATTCATTTAGTTAAACGAAT; chemistry not fully specified)”, the “Average Luminescence (RLU/CFU)” value is reported as 0.0024 RLU/CFU.
For “A15: RBS, SEQ ID NO: 64 (DNA TCCCGCATTTTAAAATAAAATAAATTATTATTTTACTTAAACGAAT; chemistry not fully specified)”, the “Average Luminescence (RLU/CFU)” value was 0.01335 RLU/CFU.
